Tested on: 129SvEdnrb−/− (KO) mice with colonic aganglionosis
Experiment: Histological enterocolitis scoring after medicated water treatment in murine model of HAEC
Assay type: in vivo, mouse
Conditions: Ednrb−/− (KO) mice, antifungal only in drinking water, vs untreated KO; trend, did not reach significance
Source text: Regular water treated KO mice (KO_H2O) and their wild type littermates (WT_H2O) were used as untreated control. […] The total enterocolitis score of each treatment was compared with KO_H2O by using unpaired two-tailed Student's t-test. Results are shown as Mean±SEM, *P<0.05; **P<0.01. We test antibiotic and antifungal agents and their combinations on the 129sv/Ednrb mouse strain shown to be a model of HAEC. The experimental groups and protocol are described below: Medicated water which contains enrofloxacin (Baytril), metronidazole, vancomycin, natamycin ([…]), fluconazole, and/or […] (Isavuconazole sulfate) are administered to pregnant mice from the time that the pregnancy is noted, through weaning of the pups. In other words, the administration of medicated water to moms are stopped after weaning, and then continued with the weaned pups. Six groups of animals (129sv/Ednrb-null mouse strain, n=5-8 per group) with different treatment are described as below. The dosage was calculated by the concentration of antibiotic and antifungal agents and assuming a mouse taking 5 ml water per day based on published data. Group 1. […] Significant changes in makeup between the samples will be verified by quantitative PCR. […]

SMILES | reduction of mean enterocolitis score [%]
OC(Cn1cncn1)(Cn1cncn1)c1ccc(F)cc1F [AFX2, fluconazole] | 34
C[C@@H]1C/C=C/C=C/C=C/C=C/[C@H](O[C@@H]2O[C@H](C)[C@@H](O)[C@H](N)[C@@H]2O)C[C@@H]2O[C@](O)(C[C@@H](O)C[C@H]3O[C@@H]3/C=C/C(=O)O1)C[C@H](O)[C@H]2C(=O)O [AFX1, natamycin] | 42

Reference: patent publication US20170189474A1, “ANTIFUNGAL THERAPY FOR THE TREATMENT OF HIRSCHSPRUNG-ASSOCIATED ENTEROCOLITIS” (Cedars-Sinai Medical Center, priority 2014, published 2017)
